# Legend:
# Format in all cases: in vivo, C57BL/6 mice
# [1] = test system: liver (LV); experiment: Whole organ transcriptome (GeneChip microarray) of liver 6 h after adjuvant administration: sDEGs, hierarchical clustering; details: liver; as to adjuvant group (cluster) in LV: key: G1 (interferon signaling); G2 (metabolism of lipids and lipoproteins); G3 (response to stress); G4 (response to wounding); G5 (phosphate-containing compound metabolic process); G6 (phagosome)
# [2] = test system: spleen (SP); experiment: Whole organ transcriptome (GeneChip microarray) of spleen 6 h after adjuvant administration: sDEGs, hierarchical clustering; as to adjuvant group (cluster) in SP: key: G1 (interferon signaling); G2 (metabolism of lipids and lipoproteins); G3 (response to stress); G4 (response to wounding); G5 (phosphate-containing compound metabolic process); G6 (phagosome)
# [3] = test system: inguinal lymph nodes (LN); experiment: Whole organ transcriptome (GeneChip microarray) of draining inguinal lymph nodes 6 h after adjuvant administration: sDEGs, gene modules, hierarchical clustering; as to adjuvant group (cluster) in LN: key: G1 (interferon signaling); G2 (metabolism of lipids and lipoproteins); G3 (response to stress); G4 (response to wounding); G5 (phosphate-containing compound metabolic process); G6 (phagosome)
# [4] = test system: preferentially upregulated genes in LV, SP, LN; experiment: Z-score-based differential gene expression analysis (adjuvant group- or adjuvant-associated genes, 40 module mapping, TargetMine annotation); design: key to z sum, 1458589_at ---: sum of the per-gene fold-change z-scores of the triplicate samples; details: ID
# In short: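 Gene groups for each organ were built from combined z-score cutoffs across adjuvants, ranging from z>1 to z>3. Scores came from fold changes standardized per gene over the whole organ data set, with the three replicate z-scores added per adjuvant; sums above 3 marked preferential expression.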
# [5] = i.d. administration, fold change <0.667, p<0.01, customized PA call=1, 6 h after adjuvant
# [6] = i.d. administration, fold change >1.5, p<0.01, customized PA call=1, 6 h after adjuvant
compound,measurement,setting,value
"Nc1nc2c(ncn2[C@@H]2O[C@@H]3COP(=O)(O)O[C@H]4[C@@H](O)[C@H](n5cnc6c(N)ncnc65)O[C@@H]4COP(=O)(O)O[C@@H]2[C@@H]3O)c(=O)[nH]1 [cGAMP, Cyclic [G(2′,5′)pA(3′,5′)p]]",adjuvant group (cluster) in LV,[1]; hierarchical clustering,G1
same,"Number of gene probes with statistically significant changes (sDEGs), LV, Down",[1]; [5],248
same,"Number of gene probes with statistically significant changes (sDEGs), LV, Up",[1]; [6],841
same,adjuvant group (cluster) in SP,[2]; hierarchical clustering,G1
same,"Number of gene probes with statistically significant changes (sDEGs), SP, Down",[2]; [5],93
same,"Number of gene probes with statistically significant changes (sDEGs), SP, Up",[2]; [6],680
same,"module M40^LN (immune system process; dendritic cells, macrophages, neutrophils, stromal cells)","[3]; LN, 6 h",strongly induced
same,adjuvant group (cluster) in LN,"[3]; hierarchical clustering, lymph node",G1
same,"Number of gene probes with statistically significant changes (sDEGs), LN, Down","[3]; i.d. administration, lymph node, fold change <0.667, p<0.01, customized PA call=1, 6 h after adjuvant",255
same,"Number of gene probes with statistically significant changes (sDEGs), LN, Up","[3]; i.d. administration, lymph node, fold change >1.5, p<0.01, customized PA call=1, 6 h after adjuvant",1135
same,"z sum, 1428027_at LOC100653389","[4]; LN, Modules 26",−1.72
same,"z sum, 1419721_at Niacr1","[4]; LN, Modules 27",−2.05
same,"z sum, 1418424_at Tnfaip6","[4]; LN, Modules 29",−2.05
same,"z sum, 1419534_at Olr1","[4]; LN, Modules 29",−2.35
same,"z sum, 1421457_a_at Samsn1","[4]; LN, Modules 29",−1.88
same,"z sum, 1422305_at Ifnb1","[4]; LN, Modules 29",−1.97
same,"z sum, 1423028_at Ifna2","[4]; LN, Modules 29",−1.92
same,"z sum, 1425837_a_at Ccrn4l","[4]; LN, Modules 29",−2.11
same,"z sum, 1436387_at C330006P03Rik///Homer1","[4]; LN, Modules 29",−1.73
same,"z sum, 1439349_at Sbno2","[4]; LN, Modules 29",−2.1
same,"z sum, 1444010_at Eif4e","[4]; LN, Modules 29",−1.99
same,"z sum, 1448325_at Ppp1r15a","[4]; LN, Modules 29",−2.32
same,"z sum, 1449311_at Bach1","[4]; LN, Modules 29",−1.95
same,"z sum, 1450297_at Il6","[4]; LN, Modules 29",−2.07
same,"z sum, 1455197_at Rnd1","[4]; LN, Modules 29",−2.12
same,"z sum, 1455899_x_at Socs3","[4]; LN, Modules 29",−2.14
same,"z sum, 1417252_at Ptgs2","[4]; LN, Modules 34",−2.41
same,"z sum, 1417263_at Ptgs2","[4]; LN, Modules 34",−2.18
same,"z sum, 1419132_at Tfr2","[4]; LN, Modules 34",−1.86
same,"z sum, 1421473_at Il1a","[4]; LN, Modules 34",−2.25
same,"z sum, 1439981_at Tespa1","[4]; LN, Modules 35",−2.15
same,"z sum, 1441843_s_at 5230400M03Rik","[4]; LN, Modules 35",−1.71
same,"z sum, 1442556_at ---","[4]; LN, Modules 35",−1.95
same,"z sum, 1443414_at C78513","[4]; LN, Modules 35",−1.91
same,"z sum, 1444598_at ---","[4]; LN, Modules 35",−1.93
same,"z sum, 1445534_at ---","[4]; LN, Modules 35",−1.93
same,"z sum, 1446245_at ---","[4]; LN, Modules 35",−1.58
same,"z sum, 1457944_at ---","[4]; LN, Modules 35",−1.78
same,"z sum, 1458376_at B930025B16Rik","[4]; LN, Modules 35",−1.85
same,"z sum, 1459144_at ---","[4]; LN, Modules 35",−1.91
same,"z sum, 1425687_at Cflar","[4]; LN, Modules 36",−2.21
same,"z sum, 1427736_a_at Ccrl2","[4]; LN, Modules 36",−1.74
same,"z sum, 1449169_at Has2","[4]; LN, Modules 36",−1.67
same,"z sum, 1453636_at Pcgf5","[4]; LN, Modules 36",−1.86
same,"z sum, 1457888_at ---","[4]; LN, Modules 36",−1.91
same,"z sum, 1419508_at Ripk1","[4]; LN, Modules 37",−1.9
same,"z sum, 1421578_at Ccl4","[4]; LN, Modules 37",−2.14
same,"z sum, 1421679_a_at Cdkn1a","[4]; LN, Modules 37",−1.99
same,"z sum, 1424638_at Cdkn1a","[4]; LN, Modules 37",−2.22
same,"z sum, 1433508_at Klf6","[4]; LN, Modules 37",−2.41
same,"z sum, 1434350_at Csrnp1","[4]; LN, Modules 37",−1.97
same,"z sum, 1439680_at Tnfsf10","[4]; LN, Modules 37",−1.65
same,"z sum, 1448724_at Cish","[4]; LN, Modules 37",−2.38
same,"z sum, 1451340_at Arid5a","[4]; LN, Modules 37",−1.67
same,"z sum, 1453851_a_at Gadd45g","[4]; LN, Modules 37",−1.96
same,"z sum, 1457404_at Nfkbiz","[4]; LN, Modules 37",−1.92
same,"z sum, 1458589_at ---","[4]; LN, Modules 37",−2.36
same,"z sum, 1422054_a_at 5kil","[4]; LN, Modules 40",−2.23
same,"z sum, 1428735_at Cd69","[4]; LN, Modules 40",−1.52
same,"Adar 1425405_a_at (Group G1, Modules 20)","[4]; LV, sample x1",2.95
same,"Adar 1434268_at (Group G1, Modules 20)","[4]; LV, sample x1",2.22
same,"Ddx58 1436562_at (Group G1, Modules 20)","[4]; LV, sample x1",2.04
same,"Ddx58 1456890_at (Group G1, Modules 20)","[4]; LV, sample x1",2.26
same,"Eif2ak2 1422005_at (Group G1, Modules 20)","[4]; LV, sample x1",3.11
same,"G3bp2 1421323_a_at (Group G1, Modules 20)","[4]; LV, sample x1",3.19
same,"Gm9706///Isg15 1431591_s_at (Group G1, Modules 20)","[4]; LV, sample x1",2.13
same,"H2-T10///H2-T22///H2-T9 1449875_s_at (Group G1, Modules 20)","[4]; LV, sample x1",2.29
same,"Ifih1 1426276_at (Group G1, Modules 20)","[4]; LV, sample x1",1.73
same,"Ifit1 1450783_at (Group G1, Modules 20)","[4]; LV, sample x1",2.75
same,"Ifit3 1449025_at (Group G1, Modules 20)","[4]; LV, sample x1",2.13
same,"Irf7 1417244_a_at (Group G1, Modules 20)","[4]; LV, sample x1",1.6
same,"Irgm1 1418825_at (Group G1, Modules 20)","[4]; LV, sample x1",2.25
